Data published in the OligoGym collection.
HELM strings list units from the 5' end as sugar, base in round brackets, then linkage (d deoxyribose, r ribose, m 2'-O-methyl, p phosphodiester). Strings are as the collection lists them; they lack the last nucleoside at the 3' end of the tested compound. [moe] = 2'-O-(2-methoxyethyl) (MOE); [sp] = phosphorothioate linkage; [m5C] = 5-methylcytosine

Biological target: UBE3A-ATS
Test: mouse, dose not given
Conditions: ASO

Row | Substance | 3 h FOB score
1 | RNA1{[moe](G)[sp].[moe](G)p.[moe]([m5C])p.[moe](A)p.[moe](G)p.d([m5C])[sp].d(T)[sp].d([m5C])[sp].d([m5C])[sp].d(T)[sp].d(G)[sp].d(A)[sp].d([m5C])[sp].d(A)[sp].d(A)[sp].[moe](A)p.[moe](T)p.[moe](T)[sp].[moe](A)}$$$$ (last 3' nucleoside missing) | 4 score 0-7
2 | RNA1{[moe](T)[sp].[moe](A)p.[moe](T)p.[moe](T)p.d(G)[sp].d(G)[sp].d(T)[sp].d([m5C])[sp].d(A)[sp].d(T)[sp].d([m5C])[sp].d(T)[sp].d([m5C])[sp].d(G)[sp].[moe](G)p.[moe](G)p.[moe](T)p.[moe](A)[sp].[moe](T)}$$$$ (last 3' nucleoside missing) | 4 score 0-7
3 | RNA1{[moe](A)[sp].[moe]([m5C])p.[moe](T)p.[moe](G)p.[moe](G)p.d([m5C])[sp].d(A)[sp].d(T)[sp].d(A)[sp].d(T)[sp].d(T)[sp].d([m5C])[sp].d([m5C])[sp].d(G)[sp].d(A)[sp].[moe](T)p.[moe](T)p.[moe](A)[sp].[moe](T)}$$$$ (last 3' nucleoside missing) | 3 score 0-7
4 | RNA1{[moe](G)[sp].[moe](G)p.[moe](G)p.[moe](A)p.[moe](T)p.d(A)[sp].d(T)[sp].d(A)[sp].d(T)[sp].d([m5C])[sp].d(A)[sp].d([m5C])[sp].d(T)[sp].d(T)[sp].d(G)[sp].[moe](G)p.[moe](A)p.[moe](G)[sp].[moe]([m5C])}$$$$ (last 3' nucleoside missing) | 4 score 0-7
5 | RNA1{[moe]([m5C])[sp].[moe](A)p.[moe](T)p.[moe](A)[sp].d([m5C])[sp].d([m5C])[sp].d([m5C])[sp].d(A)[sp].d(G)[sp].d(G)[sp].d(G)[sp].d(T)[sp].[moe](A)p.[moe](G)p.[moe](G)p.[moe](A)[sp].[moe](T)}$$$$ (last 3' nucleoside missing) | 1 score 0-7
6 | RNA1{[moe](T)[sp].[moe](T)p.[moe](A)p.[moe](G)p.[moe](T)p.d(G)[sp].d(T)[sp].d([m5C])[sp].d(A)[sp].d(T)[sp].d(A)[sp].d(T)[sp].d(G)[sp].d(T)[sp].d(A)[sp].[moe](G)p.[moe]([m5C])p.[moe](A)[sp].[moe](A)}$$$$ (last 3' nucleoside missing) | 1 score 0-7
7 | RNA1{[moe](G)[sp].[moe](G)p.[moe](G)p.[moe](A)p.[moe](A)p.d([m5C])[sp].d(A)[sp].d([m5C])[sp].d(A)[sp].d([m5C])[sp].d([m5C])[sp].d(A)[sp].d(T)[sp].d(T)[sp].d([m5C])[sp].[moe](A)p.[moe](G)p.[moe]([m5C])[sp].[moe](A)}$$$$ (last 3' nucleoside missing) | 4.5 score 0-7
8 | RNA1{[moe](G)[sp].[moe](A)p.[moe](G)p.[moe]([m5C])p.[moe](A)p.d(T)[sp].d(T)[sp].d(G)[sp].d(G)[sp].d([m5C])[sp].d(T)[sp].d(T)[sp].d([m5C])[sp].d(A)[sp].d(T)[sp].[moe](A)p.[moe](T)p.[moe](T)[sp].[moe](T)}$$$$ (last 3' nucleoside missing) | 1 score 0-7
9 | RNA1{[moe](T)[sp].[moe]([m5C])p.[moe](A)p.[moe](T)p.[moe](T)p.d(A)[sp].d(T)[sp].d(T)[sp].d([m5C])[sp].d(T)[sp].d([m5C])[sp].d(T)[sp].d(A)[sp].d(G)[sp].d(T)[sp].[moe](G)p.[moe]([m5C])p.[moe]([m5C])[sp].[moe](T)}$$$$ (last 3' nucleoside missing) | 1 score 0-7
10 | RNA1{[moe](G)[sp].[moe](A)p.[moe](G)p.[moe]([m5C])[sp].d(T)[sp].d(A)[sp].d(T)[sp].d([m5C])[sp].d(T)[sp].d(G)[sp].d(T)[sp].d(A)[sp].[moe]([m5C])p.[moe](A)p.[moe](A)p.[moe](A)[sp].[moe](A)}$$$$ (last 3' nucleoside missing) | 3.3 score 0-7
11 | RNA1{[moe]([m5C])[sp].[moe](T)p.[moe](T)p.[moe](A)p.[moe](A)p.d(A)[sp].d(T)[sp].d(A)[sp].d(G)[sp].d(T)[sp].d(A)[sp].d(G)[sp].d(G)[sp].d(A)[sp].d(A)[sp].[moe](A)p.[moe](G)p.[moe]([m5C])[sp].[moe]([m5C])}$$$$ (last 3' nucleoside missing) | 4.8 score 0-7
12 | RNA1{[moe]([m5C])[sp].[moe](A)p.[moe](G)p.[moe](T)p.[moe](T)p.d(A)[sp].d(G)[sp].d(G)[sp].d(T)[sp].d(T)[sp].d(A)[sp].d(G)[sp].d(T)[sp].d(G)[sp].d([m5C])[sp].[moe](A)p.[moe]([m5C])p.[moe](A)[sp].[moe](G)}$$$$ (last 3' nucleoside missing) | 6 score 0-7
13 | RNA1{[moe](T)[sp].[moe](T)p.[moe](T)p.[moe](T)p.[moe](A)p.d(T)[sp].d(T)[sp].d(G)[sp].d(G)[sp].d(T)[sp].d([m5C])[sp].d(A)[sp].d(T)[sp].d([m5C])[sp].d(T)[sp].[moe]([m5C])p.[moe](G)p.[moe](G)[sp].[moe](G)}$$$$ (last 3' nucleoside missing) | 2.3 score 0-7
14 | RNA1{[moe](G)[sp].[moe]([m5C])p.[moe](A)p.[moe](T)p.[moe](A)p.[moe]([m5C])p.d([m5C])[sp].d([m5C])[sp].d(A)[sp].d(G)[sp].d(G)[sp].d(G)[sp].d(T)[sp].d(A)[sp].d(G)[sp].d(G)[sp].[moe](A)p.[moe](T)[sp].[moe](T)}$$$$ (last 3' nucleoside missing) | 1 score 0-7
15 | RNA1{[moe]([m5C])[sp].[moe](T)p.[moe](T)p.[moe](A)p.[moe](G)p.d(A)[sp].d(T)[sp].d(G)[sp].d(T)[sp].d(G)[sp].d(T)[sp].d(T)[sp].d(T)[sp].d(A)[sp].d(T)[sp].[moe]([m5C])p.[moe]([m5C])p.[moe](A)[sp].[moe](A)}$$$$ (last 3' nucleoside missing) | 1.2 score 0-7
16 | RNA1{[moe](A)[sp].[moe]([m5C])p.[moe](T)p.[moe](G)p.[moe]([m5C])p.[moe](T)p.d(T)[sp].d([m5C])[sp].d(A)[sp].d([m5C])[sp].d([m5C])[sp].d(A)[sp].d(T)[sp].d(T)[sp].d(T)[sp].d(T)[sp].[moe](G)p.[moe](A)[sp].[moe]([m5C])}$$$$ (last 3' nucleoside missing) | 1 score 0-7
17 | RNA1{[moe](G)[sp].[moe](T)p.[moe]([m5C])p.[moe](A)p.[moe](G)p.d(A)[sp].d(T)[sp].d(T)[sp].d([m5C])[sp].d([m5C])[sp].d(T)[sp].d(A)[sp].d(A)[sp].d(A)[sp].d(T)[sp].[moe](A)p.[moe]([m5C])p.[moe](G)[sp].[moe]([m5C])}$$$$ (last 3' nucleoside missing) | 0 score 0-7
18 | RNA1{[moe](A)[sp].[moe](T)p.[moe](G)p.[moe](T)p.[moe](G)p.d([m5C])[sp].d(A)[sp].d(T)[sp].d(A)[sp].d([m5C])[sp].d([m5C])[sp].d([m5C])[sp].d(A)[sp].d(G)[sp].d(G)[sp].[moe](G)p.[moe](T)p.[moe](A)[sp].[moe](G)}$$$$ (last 3' nucleoside missing) | 4 score 0-7
19 | RNA1{[moe]([m5C])[sp].[moe](A)[sp].[moe](A)[sp].[moe]([m5C])[sp].[moe](T)[sp].d(G)[sp].d(T)[sp].d(T)[sp].d(A)[sp].d([m5C])[sp].d([m5C])[sp].d(A)[sp].d(A)[sp].d(G)[sp].d(A)[sp].[moe]([m5C])[sp].[moe](T)[sp].[moe](T)[sp].[moe]([m5C])}$$$$ (last 3' nucleoside missing) | 4.8 score 0-7
20 | RNA1{[moe](G)[sp].[moe]([m5C])p.[moe](T)p.[moe](G)p.[moe](A)p.[moe](T)p.d([m5C])[sp].d(A)[sp].d([m5C])[sp].d(A)[sp].d(T)[sp].d(T)[sp].d(A)[sp].d([m5C])[sp].d([m5C])[sp].d([m5C])[sp].[moe](A)p.[moe](T)[sp].[moe]([m5C])}$$$$ (last 3' nucleoside missing) | 0 score 0-7
21 | RNA1{[moe]([m5C])[sp].[moe]([m5C])p.[moe](A)p.[moe](A)p.[moe](T)p.d(A)[sp].d(T)[sp].d(T)[sp].d(T)[sp].d(T)[sp].d(G)[sp].d(A)[sp].d([m5C])[sp].d(T)[sp].d(A)[sp].[moe](G)p.[moe](T)p.[moe](T)[sp].[moe]([m5C])}$$$$ (last 3' nucleoside missing) | 4.2 score 0-7
22 | RNA1{[moe](T)[sp].[moe]([m5C])p.[moe](T)p.[moe](G)p.d([m5C])[sp].d(T)[sp].d([m5C])[sp].d(A)[sp].d(G)[sp].d(T)[sp].d(T)[sp].d(A)[sp].d(G)[sp].d(G)[sp].[moe](T)p.[moe](T)p.[moe](A)p.[moe](G)[sp].[moe](T)}$$$$ (last 3' nucleoside missing) | 4 score 0-7
23 | RNA1{[moe](T)[sp].[moe]([m5C])p.[moe](T)p.[moe]([m5C])p.[moe](G)p.d(G)[sp].d(G)[sp].d(T)[sp].d(A)[sp].d(T)[sp].d(A)[sp].d(T)[sp].d(A)[sp].d(A)[sp].d(A)[sp].[moe](T)p.[moe](T)p.[moe](A)[sp].[moe](A)}$$$$ (last 3' nucleoside missing) | 0 score 0-7
24 | RNA1{[moe]([m5C])[sp].[moe](T)p.[moe]([m5C])p.[moe]([m5C])p.[moe](A)p.d(G)[sp].d(T)[sp].d(T)[sp].d(T)[sp].d(T)[sp].d([m5C])[sp].d(G)[sp].d([m5C])[sp].d([m5C])[sp].d([m5C])[sp].[moe](G)p.[moe](T)p.[moe](T)[sp].[moe](A)}$$$$ (last 3' nucleoside missing) | 3.3 score 0-7
25 | RNA1{[moe](G)[sp].[moe]([m5C])p.[moe](A)p.[moe](G)p.[moe]([m5C])p.d(T)[sp].d([m5C])[sp].d(T)[sp].d(T)[sp].d(T)[sp].d(G)[sp].d(T)[sp].d(A)[sp].d(G)[sp].d(G)[sp].[moe]([m5C])p.[moe]([m5C])p.[moe]([m5C])[sp].[moe](A)}$$$$ (last 3' nucleoside missing) | 3.3 score 0-7
26 | RNA1{[moe](T)[sp].[moe](G)p.[moe](T)p.[moe](G)p.[moe]([m5C])[sp].d(A)[sp].d(T)[sp].d(A)[sp].d([m5C])[sp].d([m5C])[sp].d([m5C])[sp].d(A)[sp].d(G)[sp].[moe](G)p.[moe](G)p.[moe](T)[sp].[moe](A)}$$$$ (last 3' nucleoside missing) | 1 score 0-7
